Laboratory results taken from ChEMBL document CHEMBL1148751, “Optimization of the indenone ring of indenoisoquinoline topoisomerase I inhibitors” (2007).

Assays:
Type in all cases: functional
MDA-MB-435 = assay: Cytotoxicity against human MDA-MB-435 cells
SN12C = assay: Cytotoxicity against human SN12C cells
UACC-62 = assay: Cytotoxicity against human UACC62 cells
HCT-116 = assay: Cytotoxicity against human HCT116 cells
SF-539 = assay: Cytotoxicity against human SF539 cells
OVCAR-3 = assay: Cytotoxicity against human OVCAR-3 cells
DU-145 = assay: Cytotoxicity against human DU145 cells
HOP-62 = assay: Cytotoxicity against human HOP62 cells

Structure (SMILES) | GI50 (MDA-MB-435) | GI50 (SN12C) | GI50 (UACC-62) | GI50 (HCT-116) | GI50 (SF-539) | GI50 (OVCAR-3) | GI50 (DU-145) | GI50 (HOP-62)
NCCCn1c2c(c3ccc([N+](=O)[O-])cc3c1=O)C(=O)c1cc(-c3ccccc3)ccc1-2 | 0.468 µM | 0.437 µM | 1.51 µM | 0.178 µM | 1.62 µM | 1.82 µM | 0.2 µM | 0.186 µM
Cc1ccc2c(c1)C(=O)c1c-2n(CCCBr)c(=O)c2cc([N+](=O)[O-])ccc12 | > 100 µM | 46.8 µM | 26.3 µM | 18.6 µM | > 100 µM | 70.8 µM | 50.1 µM | 24.5 µM
COc1cc2c3c(n(CCCN)c(=O)c2cc1OC)-c1ccc(F)cc1C3=O | 6.03 µM | 4.36 µM | 3.39 µM | 1.38 µM | 1.12 µM | 6.31 µM | 0.575 µM | 0.603 µM
CS(=O)(=O)c1ccc2c(c1)C(=O)c1c-2n(CCCBr)c(=O)c2cc([N+](=O)[O-])ccc12 | 83.2 µM | 6.92 µM | 4.27 µM | 7.41 µM | 24 µM | 28.8 µM | 6.31 µM | 8.13 µM
COc1cc2c3c(n(CCCN=[N+]=[N-])c(=O)c2cc1OC)-c1ccc(C#N)cc1C3=O | > 100 µM | 15.5 µM | 12.3 µM | 24 µM | 17.4 µM | 17 µM | 33.9 µM | 14.1 µM
COc1cc2c3c(n(CCCN=[N+]=[N-])c(=O)c2cc1OC)-c1ccc(F)cc1C3=O | 38 µM | 8.32 µM | 5.25 µM | 4.17 µM | 3.24 µM | 6.17 µM | 4.17 µM | 4.17 µM
NCCCn1c2c(c3ccc([N+](=O)[O-])cc3c1=O)C(=O)c1cc(Br)ccc1-2 | 0.162 µM | < 0.01 µM | < 0.01 µM | 0.048 µM | 0.011 µM | 0.295 µM | < 0.01 µM | 0.033 µM
COc1cc2c3c(n(CCCN)c(=O)c2cc1OC)-c1ccc([N+](=O)[O-])cc1C3=O | 15.8 µM | 11.7 µM | 11.5 µM | 1.32 µM | 3.72 µM | 16.6 µM | 2.09 µM | 0.617 µM
COc1cc2c3c(n(CCCBr)c(=O)c2cc1OC)-c1ccc(NC(C)=O)cc1C3=O | 13.8 µM | 13.8 µM | 2.09 µM | 2.57 µM | 3.8 µM | 4.36 µM | 4.68 µM | 1.29 µM
COc1cc2c3c(n(CCCN)c(=O)c2cc1OC)-c1ccc(N(C)C)cc1C3=O | 17.8 µM | 17 µM | 21.9 µM | 3.63 µM | 1.9 µM | 17.8 µM | 2.4 µM | 17 µM
COC(=O)c1ccc2c(c1)C(=O)c1c-2n(CCCN)c(=O)c2cc(OC)c(OC)cc12 | 18.2 µM | 15.1 µM | 17.4 µM | 16.6 µM | 15.8 µM | 16.6 µM | 17.8 µM | 3.72 µM
NCCCn1c2c(c3ccc([N+](=O)[O-])cc3c1=O)C(=O)c1cc(I)ccc1-2 | 0.224 µM | < 0.01 µM | < 0.01 µM | < 0.01 µM | 0.044 µM | 1.2 µM | < 0.01 µM | 0.021 µM
COC(=O)c1ccc2c(c1)C(=O)c1c-2n(CCCN=[N+]=[N-])c(=O)c2cc(OC)c(OC)cc12 | > 100 µM | > 100 µM | > 100 µM | > 100 µM | > 100 µM | > 100 µM | > 100 µM | > 100 µM
